Test results reported in patent US4873238A, “2-Pyridinecarbothioamides and pharmaceutical compositions comprising the same” (American Home Products Corporation, priority 1988, dated 1989).
Counter-ions that a name gives are not always drawn.

Assays:
[1] = tested on: gastric mucosal lesions produced by ethanol; assay: Ethanol induced cytotoxicity in rats (prevention of gastric mucosal lesions); assay type: in vivo, Male Sprague-Dawley rats; conditions: for % Inhibition of lesion formation: 10 mg/kg oral, 1 hour prior to ethanol, rat; for ED50: Rattus norvegicus, po
Method: The purpose of this assay is to evaluate the effectiveness of the compounds of the present invention in preventing the formation of gastric mucosal lesions produced by ethanol. The assay is based on A. Robert et al., Gastroenterology 77, 433-443 (1979). Male Sprague-Dawley rats weighing between 120-150 grams were fasted for 24 hours prior to the experiment (water ad libitum). At least two hours before dosing, the animals were placed in individual cages with wire grid bottoms and denied access to water. Ethanol was administered orally at 1 mL per animal. The compounds of the present invention were dissolved in water or suspended in water with 0.5% carboxymethylcellulose and administered orally at a dose based on an appropriate standard giving ED50 to ED75 response of cytoprotective activity. The rats were randomly divided into groups of equal number, ordinarily 10 to a group. The rats were weighed and the individual weights were recorded. Exactly 1 hour prior to the administration of ethanol, the screening group was treated with the compounds of the present invention and the control group with the vehicle. One hour after administering the ethanol, the animals were euthanized. The stomachs were removed, cut along the greater curvature, and cleansed of all debris with tap water. The stomachs were set aside and kept moist with saline until the lesions were scored. Macroscopic lesions on the gastric mucosa were numerically graded. The final grade assigned a stomach was the sum of all the grades. Streaks longer than 6 mm are graded in multiples of 2 mm. The degree of cytotoxicity occuring in each group is represented as the mean ±SE ulcer grade. The mean of each treatment group was compared to the control group and expressed as the % inhibition of lesion formation.

ethanol-induced ulcer = conditions: antisecretory agents; cited from earlier work
stress-induced ulcers = assay: Stress-induced gastric ulcers in rats; assay type: in vivo, Male rats; conditions: oral or parenteral, usually 15 to 45 minutes prior to stress; restraint at 4-5 °C for 3 hours; sodium taurocholate 20 mg p.o.; rat; read-out: Stress-Induced Ulcer ED50
Method: The purpose of this assay is to evaluate the effectiveness of the compounds of the present invention in preventing stress-induced ulcers. Male rats (280-380 g) were fasted for 18 hours (water available ad libitum) prior to use in experiments. Eight to twelve rats were used per group. Drug solutions or suspensions were prepared in physiological saline solution. Suspensions were prepared with the aid of 0.5% carboxymethylcellulose in physiological saline solution. Drugs were administered orally or parenterally at predetermined intervals (usually 15 to 45 minutes) prior to stress. This test procedure is according to the method of Senay et al., Proc. Soc. Exp. Biol. Med. 124, 1221 (1967), modified to produce a more consistent ulcer incidence. After drug administration, the rats were immobilized in metallic restrainers and placed in a cold room at 4°-5° C. for 3 hours before they were euthanized. Each rat was given 20 mg of sodium taurocholate p.o. immediately before placing it in the restrainer. After euthanizing the rats, the stomachs were excised and examined. Macroscopic ulcers were subjectively assigned a grade from 1 to 3 on the basis of increasing size. The number of ulcers in each size category was determined and multiplied by the respective grade; the addition of the resultant values gave the cumulative ulcer score. The average cumulative ulcer score of each […] group was compared to that of the control group and the percent inhibition of ulcer formation was calculated. When the responses obtained were directly proportional to the doses employed, ED50 values were determined from the dose-response curves obtained.

## S=C(Nc1cccc(CN2CCSCC2)c1)c1ccccn1 [Example 9, N-[3-[(4-thiomorpholinyl)methyl]phenyl]-2-pyridinecarbothioamide]
[1]
  % Inhibition of lesion formation: 32%

## Fc1ccc(NC(=S)c2ccccn2)cc1Cn1ccnc1 [Example 1, N-[4-fluoro-3-[(1H-imidazol-1-yl)methyl]phenyl]-2-pyridinecarbothioamide]
[1]
  ED50: 0.88 mg/kg

## CN/C(=N/CCSCc1nc[nH]c1C)NC#N [cimetidine]
ethanol-induced ulcer
  Protection in the ethanol-induced ulcer model: do not protect

## S=C(Nc1cccc(CN2CCCCC2)c1)c1ccccn1 [Example 6, N-[3-(piperidinylmethyl)phenyl]-2-pyridinecarbothioamide]
[1]
  ED50: 5.3 mg/kg
stress-induced ulcers
  ED50: 4.6 mg/kg

## Cl.Cl.O.S=C(Nc1cccc(Cn2ccnc2)c1)c1ccccn1 [Example 5, N-[3-[(1H-Imidazol-1-yl)methyl]phenyl]-2-pyridinecarbothioamide Dihydrochloride Hydrate]
[1]
  ED50: 2.2 mg/kg
stress-induced ulcers
  ED50: 1.9 mg/kg

## N#Cc1cccc(NC(=S)c2ccccn2)c1 [Example 4, N-(3-cyanophenyl)-2-pyridinecarbothioamide]
[1]
  ED50: 1.6 mg/kg

## S=C(Nc1cccc(CN2CCOCC2)c1)c1ccccn1 [Example 8, N-[3-[(4-Morpholinyl)methyl]phenyl]-2-pyridinecarbothioamide]
[1]
  % Inhibition of lesion formation: 64%

## CC(C)[N+](C)(CCOC(=O)C1c2ccccc2Oc2ccccc21)C(C)C [propantheline bromide]
ethanol-induced ulcer
  Protection in the ethanol-induced ulcer model: do not protect

## S=C(Nc1ccc(CN2CCCCC2)cc1)c1ccccn1 [Example 7, N-[4-(piperidinylmethyl)phenyl]-2-pyridinecarbothioamide]
[1]
  ED50: 6.2 mg/kg

## N#Cc1ccc(NC(=S)c2ccccn2)cc1 [Example 3, N-(4-Cyanophenyl)-2-pyridinecarbothioamide]
[1]
  ED50: 1.1 mg/kg
stress-induced ulcers
  ED50: 1.7 mg/kg

## CN1CCN(Cc2cccc(NC(=S)c3ccccn3)c2)CC1 [Example 10, N-[3-[(4-methyl-1-piperazinyl)methyl]phenyl]-2-pyridinecarbothioamide dihydrochloride hemihydrate]
[1]
  % Inhibition of lesion formation: 10%

## Fc1ccc(NC(=S)c2ccccn2)cc1CN1CCCCC1 [Example 2, N-[4-Fluoro-3-(piperidinylmethyl)phenyl]-2-pyridinecarbothioamide Hydrochloride]
[1]
  ED50: 2.6 mg/kg
